Measurements from patent publication US12029800B2, “Composite particles including anionic polymer and cationic polymer or peptide, and method for producing composite particles” (POLA CHEMICAL INDUSTRIES, INC., priority 2016, dated 2024).

Test: Test Example 3: particle diameter of composite particles after adding PBS (imitating the inside of the living body)
Assay type: physicochemical
Conditions: PBS 100% (the same environment as the inside of the skin), FIG. 1
Method: An aqueous solution including a composite particle of sodium hyaluronate and a cationic polymer that was each of a primary amine and a quaternary ammonium was prepared in a similar manner as in Test Example 1.
By adding a PBS buffer solution constituted of the ions that are universally found in the living body into an aqueous solution of the prepared composite particles, it was investigated how the composite particles under the environment imitating the inside environment of the living body behaved.
Specifically, PBS was added into an aqueous solution of the prepared composite particles, and the particle diameter of a composite particle in the aqueous solution was measured in a similar manner as in Test Example 2.

Polylysine
Particle diameter of the composite particle with sodium hyaluronate at addition amount of PBS 100%: particle diameter was not able to be almost measured

Protamine
Particle diameter of the composite particle with sodium hyaluronate at addition amount of PBS 100%: particle diameter was not able to be almost measured
